Results reported in patent US9284325B2, “Spectinamides as anti-tuberculosis agents” (UNIVERSITY OF TENNESSEE RESEARCH FOUNDATION, priority 2009, dated 2016).
Counter-ions that a name gives are not always drawn.

Tests used:
[1] = test system: E. coli K12 ΔtolC; assay: microbe, parasite or virus in culture; assay type: cell-based; conditions: Escherichia coli, read-out: MIC E. coli K12 ΔtolC
[2] = test system: Strep. pneumoniae DAW27 or strain R6; assay: MIC determination by microbroth dilution; assay type: cell-based, Streptococcus pneumoniae; conditions: Streptococcus pneumoniae; Strep. pneumoniae DAW27 or strain R6 (for 1443-1544); read-out: MIC S. pneumoniae
[3] = test system: Klebsiella pneumoniae ATCC 33495; assay: MIC determination by microbroth dilution; assay type: cell-based; conditions: ATCC33495
[4] = test system: P. aeruginosa PAO1; assay: MIC determination by microbroth dilution; assay type: cell-based, Pseudomonas aeruginosa; conditions: Pseudomonas aeruginosa
[5] = test system: Strep. pyogenes ATCC 700294; assay: MIC determination by microbroth dilution; assay type: cell-based, Streptococcus pyogenes; conditions: Streptococcus pyogenes, ATCC700294, read-out: MIC S. pyogenes
[6] = test system: S. aureus 8325 or strain ATCC 29213; assay: MIC determination by microbroth dilution; assay type: cell-based, Staphylococcus aureus; conditions: Staphylococcus aureus, ATCC29213; S. aureus 8325 or strain ATCC 29213 (for 1471-1544)
[7] = test system: M. tuberculosis H37Rv; assay: MIC determination by microbroth dilution, anti-tuberculosis activity; assay type: cell-based, Mycobacterium tuberculosis; conditions: Mycobacterium tuberculosis, H37RV, 168 h; read-out: MIC
[8] = test system: Proteus vulgaris ATCC 33420; assay: MIC determination by microbroth dilution; assay type: cell-based; conditions: ATCC33420
[9] = test system: E. coli K12; assay: MIC determination by microbroth dilution; assay type: cell-based, Escherichia coli; conditions: Escherichia coli, K12
[10] = test system: E. faecalis ATCC 33186; assay: MIC determination by microbroth dilution; assay type: cell-based, Enterococcus faecalis; conditions: Enterococcus faecalis, ATCC33186
[11] = test system: Proteus mirabilis ATCC 25933; assay: MIC determination by microbroth dilution; assay type: cell-based; conditions: ATCC25933
[12] = test system: B. anthracis Sterne 34F2; assay: microbe, parasite or virus in culture; assay type: cell-based, Bacillus anthracis; conditions: Bacillus anthracis, STERNE34F2, read-out: MIC B. anthracis 34F2
[13] = test system: Burkholderia cepacia ATCC 25416; assay: MIC determination by microbroth dilution; assay type: cell-based; conditions: ATCC25416, read-out: MIC B. cepcia
[14] = test system: Acinetobacter baumannii ATCC 19606; assay: MIC determination by microbroth dilution; assay type: cell-based; conditions: ATCC19606
[15] = test system: Strenotrophomonas maltophilia ATCC 13637; assay: MIC determination by microbroth dilution; assay type: cell-based

Row | SMILES | MIC [1] | MIC [2] | MIC [3] | MIC [4] | MIC [5] | MIC [6] | MIC [7] | MIC [8] | MIC [9] | MIC [10] | MIC [11] | MIC [12] | MIC [13] | MIC [14] | MIC [15]
1 | CN[C@@H]1[C@H](O)[C@H](NC)C2O[C@]3(O)C(OC2[C@H]1O)O[C@H](C)C[C@H]3NC(=O)CN (stereo partly drawn) [Compound 1470, 3′-Dihydro-3′-deoxy-4(R)-(2-amino)acetylamino spectinomycin Trihydrochloride] | > 200 mg/L | > 200 mg/L | > 200 mg/L | > 200 mg/L | > 200 mg/L | > 200 mg/L | 200 mg/L | > 200 mg/L | > 200 mg/L | > 200 mg/L | > 200 mg/L | > 200 mg/L | > 200 mg/L | > 200 mg/L | > 200 mg/L
2 | CN[C@@H]1[C@H](O)[C@H](NC)C2O[C@]3(O)C(OC2[C@H]1O)O[C@H](C)C[C@H]3NC(=O)Cc1ccc(-c2ccc(Cl)cc2)cn1 (stereo partly drawn) [Compound 1535, 3′-Dihydro-3′-deoxy-4(R)-(5-(4-chlorophenyl)pyridin-2-yl)acetylamino spectinomycin trihydrobromide] | < 6.25 mg/L | 0.8 mg/L | > 200 mg/L | 100 mg/L | 1.6 mg/L | 50 mg/L | 3.12 mg/L | > 200 mg/L | 200 mg/L | 3.1 mg/L | > 200 mg/L | > 200 mg/L | > 200 mg/L | > 200 mg/L | > 200 mg/L
3 | CN[C@@H]1[C@H](O)[C@H](NC)C2O[C@]3(O)C(OC2[C@H]1O)O[C@H](C)C[C@H]3NC(=O)Cc1ccc(-c2ccccc2)cn1 (stereo partly drawn) [Compound 1519, 3′-Dihydro-3′-deoxy-4(R)-(5-phenylpyridin-2-yl)acetylamino spectinomycin trihydrobromide] | 12.5 mg/L | 3.1 mg/L | > 200 mg/L | > 200 mg/L | 12.5 mg/L | 100 mg/L | 3.12 mg/L | > 200 mg/L | > 200 mg/L | 25 mg/L | > 200 mg/L | > 200 mg/L | > 200 mg/L | > 200 mg/L | > 200 mg/L
4 | CN[C@@H]1[C@H](O)[C@H](NC)C2O[C@]3(O)C(OC2[C@H]1O)O[C@H](C)C[C@H]3NC(=O)Cc1ccc(-c2cccc(OC)c2)cn1 (stereo partly drawn) [Compound 1543, 3′-Dihydro-3′-deoxy-4(R)-(5-(3-methoxyphenyl)pyridin-2-yl)acetyl-amino spectinomycin tribromide] | < 6.25 mg/L | 3.1 mg/L | > 200 mg/L | > 200 mg/L | 6.25 mg/L | 100 mg/L | 6.25 mg/L | > 200 mg/L | > 200 mg/L | 12.5 mg/L | > 200 mg/L | > 200 mg/L | > 200 mg/L | > 200 mg/L | 200 mg/L
5 | CN[C@@H]1[C@H](O)[C@H](NC)C2O[C@]3(O)C(OC2[C@H]1O)O[C@H](C)C[C@H]3NCC1CC1 (stereo partly drawn) [Compound 1419, 3′-Dihydro-3′-deoxy-4(R)-cyclopropylmethylamino spectinomycin Trihydrochloride] | 25 mg/L | 100 mg/L | > 200 mg/L | > 200 mg/L | 50 mg/L | 100 mg/L | 50 mg/L | > 200 mg/L | 100 mg/L | 200 mg/L | > 200 mg/L | 50 mg/L | > 200 mg/L | > 200 mg/L | > 200 mg/L
6 | CN[C@@H]1[C@H](O)[C@H](NC)C2O[C@]3(O)C(OC2[C@H]1O)O[C@H](C)C[C@H]3NC(=O)CCNC(=O)c1ccccc1 (stereo partly drawn) [Compound 1503, 3′-Dihydro-3′-deoxy-4(R)-3-benzamido propanoylamino spectino-mycin Dihydrochloride] | > 200 mg/L | > 200 mg/L | > 200 mg/L | > 200 mg/L | > 200 mg/L | > 200 mg/L | > 200 mg/L | > 200 mg/L | > 200 mg/L | > 200 mg/L | > 200 mg/L | > 200 mg/L | > 200 mg/L | > 200 mg/L | > 200 mg/L
7 | CN[C@@H]1[C@H](O)[C@H](NC)C2O[C@]3(O)C(OC2[C@H]1O)O[C@H](C)C[C@H]3NC(=O)[C@@H](C)N (stereo partly drawn) [Compound 1501, 3′-Dihydro-3′-deoxy-4(R)[2(R)-amino]propanoylamino spectinomycin Trihydrochloride] | > 200 mg/L | > 200 mg/L | > 200 mg/L | > 200 mg/L | > 200 mg/L | > 200 mg/L | > 200 mg/L | > 200 mg/L | > 200 mg/L | > 200 mg/L | > 200 mg/L | > 200 mg/L | > 200 mg/L | > 200 mg/L | > 200 mg/L
8 | CN[C@@H]1[C@H](O)[C@H](NC)C2O[C@]3(O)C(OC2[C@H]1O)O[C@H](C)C[C@H]3NC(=O)Cc1ccc(-c2ccc(F)cc2)cn1 (stereo partly drawn) [Compound 1542, 3′-Dihydro-3′-deoxy-4(R)-(5-(4-fluorophenyl)pyridin-2-yl)acetylamino spectinomycin tribromide] | 12.5 mg/L | 3.1 mg/L | > 200 mg/L | > 200 mg/L | 6.25 mg/L | 100 mg/L | 3.12 mg/L | > 200 mg/L | > 200 mg/L | 25 mg/L | > 200 mg/L | > 200 mg/L | > 200 mg/L | > 200 mg/L | > 200 mg/L
9 | CN[C@@H]1[C@H](O)[C@H](NC)C2O[C@]3(O)C(OC2[C@H]1O)O[C@H](C)C[C@H]3NC(=O)Cc1csc(Nc2ccc(F)cc2)n1 (stereo partly drawn) [Compound 1538, 3′-Dihydro-3′-deoxy-4(R)-(2-((4-fluorophenyl)amino)thiazol-4-yl)acetylamino spectinomycin tribromide] | 25 mg/L | 3.1 mg/L | > 200 mg/L | 200 mg/L | 6.25 mg/L | 100 mg/L | 6.25 mg/L | > 200 mg/L | > 200 mg/L | 25 mg/L | > 200 mg/L | > 200 mg/L | > 200 mg/L | > 200 mg/L | > 200 mg/L
10 | CN[C@@H]1[C@H](O)[C@H](NC)C2O[C@]3(O)C(OC2[C@H]1O)O[C@H](C)C[C@H]3NC(=O)Cc1cccc(OC)c1 (stereo partly drawn) [Compound 1400, 3′-Dihydro-3′-deoxy-4(R)-(3-methoxy-phenyl)acetylamino spectinomycin Dihydrochloride] | > 200 mg/L | 100 mg/L | > 200 mg/L | 100 mg/L | > 200 mg/L | > 200 mg/L | 12.5 mg/L | > 200 mg/L | > 200 mg/L | 100 mg/L | > 200 mg/L | 200 mg/L | > 200 mg/L | > 200 mg/L | > 200 mg/L
11 | CN[C@@H]1[C@H](O)[C@H](NC)C2O[C@]3(O)C(OC2[C@H]1O)O[C@H](C)C[C@H]3NC(=O)CCc1ccccn1 (stereo partly drawn) [Compound 1518, 3′-Dihydro-3′-deoxy-4(R)-(pyridin-2-yl)propanoylamino spectinomycin trihydrobromide] | 50 mg/L | 12.5 mg/L | > 200 mg/L | > 200 mg/L | 6.25 mg/L | 200 mg/L | 50 mg/L | > 200 mg/L | > 200 mg/L | > 200 mg/L | > 200 mg/L | > 200 mg/L | > 200 mg/L | > 200 mg/L | > 200 mg/L
12 | CN[C@@H]1[C@H](O)[C@H](NC)C2O[C@]3(O)C(OC2[C@H]1O)O[C@H](C)C[C@H]3NC(=O)Cc1ccc([N+](=O)[O-])cn1 (stereo partly drawn) [Compound 1490, 3′-Dihydro-3′-deoxy-4(R)-(5-nitropyridin-2-yl)acetylamino spectinomycin trihydrobromide] | 12.5 mg/L | 12.5 mg/L | > 200 mg/L | > 200 mg/L | 12.5 mg/L | 100 mg/L | 6.25 mg/L | > 200 mg/L | 200 mg/L | 50 mg/L | > 200 mg/L | > 200 mg/L | > 200 mg/L | > 200 mg/L | > 200 mg/L
13 | CN[C@@H]1[C@H](O)[C@H](NC)C2O[C@]3(O)C(OC2[C@H]1O)O[C@H](C)C[C@H]3NC(=O)[C@@H](O)CCN (stereo partly drawn) [Compound 1493, 3′-Dihydro-3′-deoxy-4(R)-(2(S)-4-amino-2-hydroxy)butanoylamino spectinomycin trihydrochloride] | 25 mg/L | 50 mg/L | > 200 mg/L | > 200 mg/L | 50 mg/L | > 200 mg/L | > 200 mg/L | 100 mg/L | 100 mg/L | > 200 mg/L | > 200 mg/L | > 200 mg/L | > 200 mg/L | > 200 mg/L | > 200 mg/L
